In the NIST ThermoML archive (doi:10.1021/je201334p):

Legend:
[1] = refractive index (Na D-line) (dimensionless); xn = mol fraction of the nth substance listed; settings: 101 kPa, Liquid, Standard Abbe refractometry
[2] = xn = mol fraction of the nth substance listed; settings: 101 kPa, Liquid; for speed of sound: Sing-around technique in a fixed-path interferometer; for mass density: Vibrating tube method

CCCCn1cc[n+](C)c1.O=S(=O)([O-])C(F)(F)F [1-butyl-3-methylimidazolium trifluoromethanesulfonate] + O
Settings | mass density, 288.15 K [kg/m3] | mass density, 298.15 K [kg/m3] | mass density, 308.15 K [kg/m3] | refractive index, 288.15 K | refractive index, 298.15 K | refractive index, 308.15 K | speed of sound, 288.15 K [m/s] | speed of sound, 298.15 K [m/s] | speed of sound, 308.15 K [m/s]
[1], x2 = 0 | – | – | – | 1.44032 | 1.43755 | 1.43475 | – | – | –
[1], x2 = 0.1348 | – | – | – | 1.43903 | 1.43626 | 1.43343 | – | – | –
[1], x2 = 0.2028 | – | – | – | 1.43815 | 1.43535 | 1.43259 | – | – | –
[1], x2 = 0.2056 | – | – | – | 1.4381 | 1.4353 | 1.43253 | – | – | –
[1], x2 = 0.3083 | – | – | – | 1.43654 | 1.43373 | 1.4309 | – | – | –
[1], x2 = 0.4985 | – | – | – | 1.43224 | 1.4294 | 1.42655 | – | – | –
[1], x2 = 0.6062 | – | – | – | 1.42835 | 1.42546 | 1.42268 | – | – | –
[1], x2 = 0.7015 | – | – | – | 1.42301 | 1.42021 | 1.41759 | – | – | –
[1], x2 = 0.8064 | – | – | – | 1.41332 | 1.41072 | 1.40803 | – | – | –
[1], x2 = 0.8998 | – | – | – | 1.39564 | 1.39323 | 1.39103 | – | – | –
[1], x2 = 0.9309 | – | – | – | 1.38516 | 1.3829 | 1.38091 | – | – | –
[1], x2 = 0.9548 | – | – | – | 1.37365 | 1.37157 | 1.36969 | – | – | –
[2], x2 = 0 | 1307.5 | 1299.55 | 1291.62 | – | – | – | 1414.3 | 1391.4 | 1369.1
[2], x2 = 0.1348 | 1303.64 | 1295.68 | 1287.74 | – | – | – | 1419.7 | 1396.7 | 1374.8
[2], x2 = 0.2028 | 1301.3 | 1293.3 | 1285.33 | – | – | – | 1422.9 | 1400.2 | 1378.1
[2], x2 = 0.2056 | 1301.2 | 1293.22 | 1285.23 | – | – | – | 1423.2 | 1400.9 | 1379.4
[2], x2 = 0.3083 | 1296.7 | 1288.66 | 1280.65 | – | – | – | 1429.3 | 1406.7 | 1384.6
[2], x2 = 0.4985 | 1284.57 | 1276.45 | 1268.32 | – | – | – | 1445 | 1422.8 | 1400.9
[2], x2 = 0.6062 | 1273.42 | 1265.25 | 1257.08 | – | – | – | 1458 | 1436.4 | 1414.8
[2], x2 = 0.7015 | 1258.59 | 1250.44 | 1242.22 | – | – | – | 1473.8 | 1453.1 | 1432
[2], x2 = 0.8064 | 1231.3 | 1223.33 | 1215.23 | – | – | – | 1496.3 | 1478.8 | 1460
[2], x2 = 0.8998 | 1180.1 | 1172.98 | 1165.56 | – | – | – | 1523.9 | 1513.4 | 1500.5
[2], x2 = 0.9309 | 1149.84 | 1143.39 | 1136.56 | – | – | – | 1533.1 | 1527.6 | 1519.2
[2], x2 = 0.9548 | 1116.26 | 1110.62 | 1104.51 | – | – | – | 1540 | 1540.1 | 1536.7
